From PubChem BioAssay (NCI)
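Interpolation was linear, between the two tested concentrations surrounding the appropriate level; five concentrations were tested over 48 hours in 96-well plates. At the TGI there is no net growth.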 Where a SMILES comes first, the peptide text is derived from it. The star is where a group is joined. Boc = CC(C)(C)OC(=O)*

Columns and labels:
Assay in all cases: NCI tumour cell line growth inhibition, 48 h
[1] = system: A498 renal
[2] = system: LOX IMVI melanoma
[3] = system: K-562 leukemia
[4] = system: MDA-N
[5] = system: MOLT-4 leukemia
[6] = system: OVCAR-8 ovarian
[7] = system: SR leukemia
[8] = system: HS 578T breast
[9] = system: HL-60(TB) leukemia
[10] = system: OVCAR-3 ovarian
[11] = system: RPMI-8226 leukemia
[12] = system: TK-10 renal
[13] = system: NCI-H522 lung
[14] = system: MCF7 breast
[15] = system: M14 melanoma
[16] = system: DU-145 prostate
[17] = system: UACC-257 melanoma
[18] = system: PC-3 prostate
[19] = system: U251 CNS
[20] = system: SF-268 CNS
[21] = system: HOP-92 NSCLC
[22] = system: CAKI-1 renal
[23] = system: SK-OV-3 ovarian
[24] = system: EKVX NSCLC
[25] = system: HT29 colon
[26] = system: IGROV1 ovarian
[27] = system: SNB-19 CNS
[28] = system: SF-295 CNS
[29] = system: HCC-2998 colon
[30] = system: 786-0 renal
[31] = system: SNB-75 CNS
[32] = system: BT-549 breast
[33] = system: NCI/ADR-RES ovarian
[34] = system: SN12C renal
[35] = system: SK-MEL-5 melanoma
[36] = system: MDA-MB-435
[37] = system: SF-539 CNS
[38] = system: SW-620 colon
[39] = system: NCI-H226 lung
[40] = system: HOP-62 NSCLC
[41] = system: A549 NSCLC
[42] = system: UACC-62 melanoma
[43] = system: SK-MEL-28 melanoma
[44] = system: RXF 393 renal
[45] = system: HCT-116 colon
[46] = system: NCI-H460 lung
[47] = system: SK-MEL-2 melanoma
[48] = system: ACHN renal
[49] = system: KM12 colon
[50] = system: T-47D breast
[51] = system: MALME-3M melanoma
[52] = system: HCT-15 colon
[53] = system: CCRF-CEM leukemia
[54] = system: OVCAR-4 ovarian
[55] = system: UO-31 renal
[56] = system: MDA-MB-231 breast
[57] = system: COLO 205 colon
[58] = system: NCI-H23 lung

## CCOC(=O)C(CC(C)C)NC(=O)C(Cc1ccccc1)NC(=O)CNC(=O)OC(C)(C)C (stereo not drawn) (Boc-Gly-Phe-Leu-OEt; configuration not given here)
[1]
  TGI: 49.6 µM
[2]
  TGI: 34.3 µM
[3]
  TGI: 49 µM
[4]
  TGI: 28.4 µM
[5]
  TGI: 30.6 µM
[6]
  TGI: 46 µM
[7]
  TGI: 36.5 µM
[8]
  TGI: 96 µM
[9]
  TGI: 9.88 µM
[10]
  TGI: 34.4 µM
[11]
  TGI: 45.8 µM
[12]
  TGI: 97.8 µM
[13]
  TGI: 34.8 µM
[14]
  TGI: 17.3 µM
[15]
  TGI: 40.2 µM
[16]
  TGI: 43.6 µM
[17]
  TGI: 36.3 µM
[18]
  TGI: 35.7 µM
[19]
  TGI: 31.9 µM
[20]
  TGI: 43.3 µM
[21]
  TGI: 64 µM
[22]
  TGI: 23.2 µM
[23]
  TGI: 50.9 µM
[24]
  TGI: 54.1 µM
[25]
  TGI: 32.4 µM
[26]
  TGI: 49 µM
[27]
  TGI: > 100 µM
[28]
  TGI: 78.5 µM
[29]
  TGI: 37.2 µM
[30]
  TGI: 36.9 µM
[31]
  TGI: 38.6 µM
[32]
  TGI: 50.9 µM
[33]
  TGI: > 100 µM
[34]
  TGI: 35.4 µM
[35]
  TGI: 36.8 µM
[36]
  TGI: 34.4 µM
[37]
  TGI: 28.5 µM
[38]
  TGI: 39.9 µM
[39]
  TGI: 41 µM
[40]
  TGI: 64 µM
[41]
  TGI: 44.1 µM
[42]
  TGI: 35.9 µM
[43]
  TGI: 31.5 µM
[44]
  TGI: 49 µM
[45]
  TGI: 32.6 µM
[46]
  TGI: 26.6 µM
[47]
  TGI: 99.4 µM
[48]
  TGI: 30.8 µM
[49]
  TGI: 37.5 µM
[50]
  TGI: 61 µM
[51]
  TGI: 39.4 µM
[52]
  TGI: 35.8 µM
[53]
  TGI: 41.3 µM
[54]
  TGI: 71.1 µM
[55]
  TGI: > 100 µM

## ClCC1(CCl)COC1
[1]
  TGI: > 100 µM
[56]
  TGI: > 100 µM
[2]
  TGI: > 100 µM
[3]
  TGI: > 100 µM
[4]
  TGI: > 100 µM
[5]
  TGI: > 100 µM
[6]
  TGI: > 100 µM
[7]
  TGI: > 100 µM
[8]
  TGI: > 100 µM
[9]
  TGI: > 100 µM
[10]
  TGI: > 100 µM
[12]
  TGI: > 100 µM
[13]
  TGI: > 100 µM
[14]
  TGI: > 100 µM
[15]
  TGI: > 100 µM
[16]
  TGI: > 100 µM
[17]
  TGI: > 100 µM
[18]
  TGI: > 100 µM
[57]
  TGI: > 100 µM
[19]
  TGI: > 100 µM
[20]
  TGI: > 100 µM
[21]
  TGI: > 100 µM
[23]
  TGI: > 100 µM
[25]
  TGI: > 100 µM
[27]
  TGI: > 100 µM
[28]
  TGI: > 100 µM
[29]
  TGI: > 100 µM
[31]
  TGI: > 100 µM
[33]
  TGI: > 100 µM
[34]
  TGI: > 100 µM
[35]
  TGI: > 100 µM
[36]
  TGI: > 100 µM
[38]
  TGI: > 100 µM
[39]
  TGI: > 100 µM
[41]
  TGI: > 100 µM
[43]
  TGI: > 100 µM
[44]
  TGI: > 100 µM
[45]
  TGI: > 100 µM
[46]
  TGI: > 100 µM
[48]
  TGI: > 100 µM
[49]
  TGI: > 100 µM
[50]
  TGI: > 100 µM
[58]
  TGI: > 100 µM
[52]
  TGI: > 100 µM
[53]
  TGI: > 100 µM
[54]
  TGI: > 100 µM
[55]
  TGI: > 100 µM
